From patent publication US10513694B2, “Thienopyrrole compounds and uses thereof” (PROMEGA CORPORATION, priority 2015, dated 2019) come the findings set out here.

This test concerns the target NANOLUC® enzyme (Oplophorus gracilirostris, UniProt Q9GV45, A31E/A60N/A81I/F95D/I117V/K70R/L54V/L99Q/M102K/N193R/P142E/Q151K/Q38R/Q45L/V71I/Y165I). Kind of test: Inhibitor IC50 determination (NANOLUC enzyme, furimazine). It counts as biochemical. The settings on record: IC50 (uM), 0.4 ng/ml NANOLUC enzyme, final furimazine 10 uM (at Km). As for the experimental part:
The following example provides the IC50 values for the compounds disclosed herein. See Table 5 NANOLUC® enzyme was diluted to 0.4 ng/ml in CO2 independent media+10% FBS to make the detection reagent. A 3× dilution series of each inhibitor was then made in the detection reagent. A “no inhibitor” control was also made for each sample. 50 ul of each inhibitor dilution was mixed with 50 ul of NanoGlo buffer containing 20 uM furimazine. (Final furimazine concentration is 10 uM which is at Km.), and luminescence measured. Each sample was normalized to the “no inhibitor” control. The […] values were then determined using GraphPad Prism (log [inhibitor] vs. normalized response).

Each structure is given as a SMILES string.

Chain of NANOLUC® enzyme (Q9GV45 28-196 with tags or gaps with the stated changes limits assumed): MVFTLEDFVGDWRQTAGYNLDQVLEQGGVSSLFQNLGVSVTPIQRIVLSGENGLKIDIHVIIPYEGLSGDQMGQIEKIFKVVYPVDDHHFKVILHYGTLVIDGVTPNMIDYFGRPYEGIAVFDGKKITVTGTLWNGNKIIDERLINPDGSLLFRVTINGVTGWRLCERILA

Usually IC50 stands for the point on the concentration scale where inhibition reaches its midpoint. The low end stands for greater potency in that assay, the high end for weaker potency in that assay. `CCN(C(=O)Cn1c(C(=O)N[C@H]2CC[C@H](C(=O)OC)CC2)cc2sccc21)c1cccc(CBr)c1` [JRW-0466, Methyl trans-4-(4-(2-((3-(bromomethyl)phenyl)(ethyl)amino)-2-oxoethyl)-4H-thieno[3,2-b]pyrrole-5-carboxamido)cyclohexane-1-carboxylate] had an IC50 of 0.0018 µM.

In turn, `CCN(C(=O)Cn1c(C(=O)N[C@H]2CC[C@H](C(=O)OC)CC2)cc2sccc21)c1cccc(C(N)=O)c1` [JRW-0322, Methyl trans-4-(4-(2-((3-carbamoylphenyl)(ethyl)amino)-2-oxoethyl)-4H-thieno[3,2-b]pyrrole-5-carboxamido)cyclohexane-1-carboxylate] showed an IC50 of 0.2 µM.

`CCN(C(=O)Cn1c(C(=O)N[C@H]2CC[C@H](C(=O)NCCCCCC(=O)OC)CC2)cc2sccc21)c1cccc(C)c1` [JRW-0145, methyl 6-(trans-4-(4-(2-(ethyl(m-tolyl)amino)-2-oxoethyl)-4H-thieno[3,2-b]pyrrole-5-carboxamido)cyclohexane-1-carboxamido)hexanoate] had an IC50 of 0.12 µM. This IC50 lies about 1.7-fold lower than the previous one.

Take `CCN(C(=O)Cn1c(C(=O)N[C@H]2CC[C@H](C(=O)OC)CC2)cc2ccccc21)c1cccc(C)c1` [JRW-0355, Methyl trans-4-(1-(2-(ethyl(m-tolyl)amino)-2-oxoethyl)-1H-indole-2-carboxamido)cyclohexane-1-carboxylate]: the IC50 stood at 0.052 µM. This IC50 is about 2.3-fold lower than that of the molecule before.

In turn, `CCN(C(=O)Cn1c(C(=O)N[C@H]2CC[C@H](C(=O)OC)CC2)cc2sccc21)c1cccc(OC)c1` [JRW-0327, Methyl trans-4-(4-(2-(ethyl(3-methoxyphenyl)amino)-2-oxoethyl)-4H-thieno[3,2-b]pyrrole-5-carboxamido)cyclohexane-1-carboxylate] gave an IC50 of 0.11 µM.

`CCN(C(=O)Cn1c(C(=O)NC2CCN(C(=O)CCCCC(=O)O)CC2)cc2sccc21)c1cccc(C)c1` [JRW-0208, 6-(4-(4-(2-(ethyl(m-tolyl)amino)-2-oxoethyl)-4H-thieno[3,2-b]pyrrole-5-carboxamido)piperidin-1-yl)-6-oxohexanoic acid] came in with an IC50 of 0.82 µM. This IC50 is about 7.5-fold higher than that of the molecule before.

In the case of `CCN(C(=O)Cn1c(C(=O)N[C@H]2CC[C@H](C(=O)OC)CC2)cc2sccc21)c1cccc(N(C)C)c1` [JRW-0478, Methyl trans-4-(4-(2-((3-(dimethylamino)phenyl)(ethyl)amino)-2-oxoethyl)-4H-thieno[3,2-b]pyrrole-5-carboxamido)cyclohexane-1-carboxylate], half-maximal inhibition (IC50) was put at 0.065 µM. This IC50 is about 13-fold lower than that of the molecule before.

`CCN(C(=O)Cn1c(C(=O)N[C@H]2CC[C@H](C(=O)OC)CC2)cc2sccc21)c1cccc(C#N)c1` [JRW-0321, Methyl trans-4-(4-(2-((3-cyanophenyl)(ethyl)amino)-2-oxoethyl)-4H-thieno[3,2-b]pyrrole-5-carboxamido)cyclohexane-1-carboxylate] returned an IC50 of 0.16 µM. Against the preceding molecule, the IC50 is about 2.5-fold higher.

Molecule `CCCCCCN(C(=O)Cn1c(C(=O)N[C@H]2CC[C@H](C(=O)OC)CC2)cc2sccc21)c1cccc(C)c1` [JRW-0149, methyl-trans-4-(4-(2-(hexyl(m-tolyl)amino)-2-oxoethyl)-4H-thieno[3,2-b]pyrrole-5-carboxamido)cyclohexane-1-carboxylate] came in with a concentration for half-maximal inhibition (IC50) of 2.5 µM.

Take `CCc1cccc(N(CC)C(=O)Cn2c(C(=O)N[C@H]3CC[C@H](C(=O)OC)CC3)cc3ccccc32)c1` [JRW-0424, Methyl trans-4-(1-(2-(ethyl(3-ethylphenyl)amino)-2-oxoethyl)-1H-indole-2-carboxamido)cyclohexane-1-carboxylate]: the IC50 came out at 0.005 µM.

`CCN(C(=O)Cn1c(C(=O)N[C@H]2CC[C@H](C(=O)OC)CC2)cc2ccc(OC)cc21)c1cccc(C)c1` [JRW-0359, Methyl trans-4-(1-(2-(ethyl(m-tolyl)amino)-2-oxoethyl)-6-methoxy-1H-indole-2-carboxamido)cyclohexane-1-carboxylate] showed an IC50 of 3 µM.

Molecule `CCN(C(=O)Cn1c(C(=O)N[C@H]2CC[C@H](C(=O)N[C@H]3CC[C@H](C(=O)OC)CC3)CC2)cc2sccc21)c1cccc(C)c1` [JRW-0243, methyl-trans-4-(trans-4-(4-(2-(ethyl(m-tolyl)amino)-2-oxoethyl)-4H-thieno[3,2-b]pyrrole-5-carboxamido)cyclohexane-1-carboxamido)cyclohexane-1-carboxylate] yielded an IC50 of 0.21 µM.

`Cc1cccc(NC(=O)Cn2c(C(=O)NC3CCCCC3)cc3sccc32)c1` [JRW-0081, N-cyclohexyl-4-(2-oxo-2-(m-tolylamino)ethyl)-4H-thieno[3,2-b]pyrrole-5-carboxamide]: it took 19.4 µM to reach half-maximal inhibition (IC50).

Consider `CCc1cccc(N(CC)C(=O)Cn2c(C(=O)N[C@H]3CC[C@H](C(=O)NCCCCCCS(=O)(=O)O)CC3)cc3ccccc32)c1` [JRW-0434, Sodium 6-(trans-4-(1-(2-(ethyl(3-ethylphenyl)amino)-2-oxoethyl)-1H-indole-2-carboxamido)cyclohexane-1-carboxamido)hexane-1-sulfonate], for which 0.0019 µM corresponded to half-maximal inhibition (IC50).

Consider `CCN(C(=O)Cn1c(C(=O)N[C@H]2CC[C@@H](C(=O)OC)CC2)cc2sccc21)c1cccc(C)c1` [JRW-0041, methyl-cis-4-(4-(2-(ethyl(m-tolyl)amino)-2-oxoethyl)-4H-thieno[3,2-b]pyrrole-5-carboxamido)cyclohexane-1-carboxylate], for which the IC50 was 0.2 µM.

As for `CCN(C(=O)Cn1c(C(=O)N[C@H]2CC[C@H](C(=O)OC)CC2)cc2sccc21)c1cccc(CC(C)C)c1` [JRW-0508, Methyl trans-4-(4-(2-(ethyl(3-isobutylphenyl)amino)-2-oxoethyl)-4H-thieno[3,2-b]pyrrole-5-carboxamido)cyclohexane-1-carboxylate], 0.027 µM corresponded to half-maximal inhibition (IC50).

As for `COCCOCCN(C(=O)Cn1c(C(=O)NC2CCCCC2)cc2sccc21)c1cccc(C)c1` [JRW-0109, N-cyclohexyl-4-(2-((2-(2-methoxyethoxy)ethyl)(m-tolyl)amino)-2-oxoethyl)-4H-thieno[3,2-b]pyrrole-5-carboxamide], the IC50 was determined as 10.1 µM.

For the molecule `COCCOCCN(C(=O)Cn1c(C(=O)N[C@H]2CC[C@H](C(=O)OC)CC2)cc2sccc21)c1cccc(C)c1` [JRW-0110, Methyl-trans-4-(4-(2-((2-(2-methoxyethoxy)ethyl)(m-tolyl)amino)-2-oxoethyl)-4H-thieno[3,2-b]pyrrole-5-carboxamido)cyclohexane-1-carboxylate], the IC50 stood at 3 µM.

With `CCN(C(=O)Cn1c(C(=O)N[C@H]2CC[C@H](C(=O)NCCO)CC2)cc2sccc21)c1cccc(C)c1` [JRW-0043, 4-(2-(ethyl(m-tolyl)amino)-2-oxoethyl)-N-(trans-4-((2-hydroxyethyl)carbamoyl)cyclohexyl)-4H-thieno[3,2-b]pyrrole-5-carboxamide], 0.84 µM corresponded to half-maximal inhibition (IC50). This IC50 is about 3.6-fold lower than that of the molecule before.

In the case of `CCN(C(=O)Cn1c(C(=O)N[C@H]2CC[C@H](C(=O)OC)CC2)cc2sccc21)c1cccc(CO)c1` [JRW-0461, Methyl trans-4-(4-(2-(ethyl(3-(hydroxymethyl)phenyl)amino)-2-oxoethyl)-4H-thieno[3,2-b]pyrrole-5-carboxamido)cyclohexane-1-carboxylate], the IC50 turned out to be 0.077 µM.

In the case of `CCN(C(=O)Cn1c(C(=O)N[C@H]2CC[C@H](C(=O)NCCCCCCO)CC2)cc2sccc21)c1cccc(C)c1` [JRW-0242, 4-(2-(ethyl(m-tolyl)amino)-2-oxoethyl)-N-(trans-4-((6-hydroxyhexyl)carbamoyl)cyclohexyl)-4H-thieno[3,2-b]pyrrole-5-carboxamide], the midpoint of inhibition, the IC50, lay at 0.035 µM. Compared with the last molecule, the IC50 is about 2.2-fold lower.
